Measurements from patent publication US20230105984A1, “COMPOSITIONS AND METHODS FOR THE TREATMENT OF LIVER DISEASES AND DISORDERS” (AXCELLA HEALTH INC., priority 2019, published 2023).
Where “and” joins values, the source holds several entries; their conditions need not be identical. Equal entries are not always repeated.

Assays:
MCP1/CCL2 secretion = MCP1/CCL2 secretion by primary human hepatocytes co-treated with sFA+TNF-α, ELISA after 24h; assay type: cell-based; parameters: Rx effect / Rx effect (MCP1): scale not given here; settings: for Rx effect: MCP1; for MCP1 level / MCP1 secretion compared to baseline (sFA+TNF-α): Results 1, donors 1 and 2, AA compositions at 20X; for MCP1 level / MCP1 secretion level compared to the baseline (sFA+TNF-α): Results 2, donor 2
Experimental: Hepatocyte lipotoxicity appears to be a central driver of hepatic cellular injury via oxidative stress and endoplasmic reticulum (ER) stress. The ability of amino acids combined to therapeutics agents (Rx) to influence steatosis (lipid accumulation) and inflammation in hepatocytes was assessed using human primary hepatocytes purchased from two sources: Lonza and Sekisui Xenotech. Primary hepatocytes from two healthy human donor were seeded on day 0 at density of 60000 cells in 96 well optical microplates (Thermofisher) in hepatocyte plating media (William's E medium (Gibco) supplemented with 10% heat-inactivated FBS (Atlanta Bio), 2mM Glutamax (Gibco), and 0.2% Primocin (InVivoGen) and incubated for 6 hours at 37° C., 5% CO2. After 6 hours, cells were washed twice and incubated overnight at 37° C., 5% CO2 in hepatocytes plating media. On day 1, cells were washed twice and incubated for 24h in Hepatocytes defined medium (Corning) supplemented with 2mM Glutamax (Gibco), and 1x Penicillin/Streptomycin in the same conditions described above. On day 2, cells were washed twice with DPBS 1X (Gibco) and maintained in amino acid-free WEM (US Biologicals) containing a defined custom amino acid concentration based on the mean physiological concentrations in blood. The values are published in the Human Metabolome Database (Wishart DS, Tzur D, Knox C, et al., HMDB: the Human Metabolome Database. Nucleic Acids Res. 2007 Jan; 35(Database issue):[…]-6. 17202168; which is hereby incorporated by reference in its entirety). […] Cells were maintained in this defined pretreatment media for 24 hours at 37° C., 5% CO2. […] After 24 hours incubation, media was removed for chemokine analysis (MCP1) and the same co treatment was reapplied for an additional 48 hours for a total of 72 hours. Human CCL2 (MCP-1) was measured by ELISA (Human […] DuoSet ELISA, R&D Systems) at 1/20 dilution in 1X Reagent Diluent (Reagent Ancillary Kit 2, R&D Systems). Lipid was normalized to the specific per well cell density determined by nuclei count.

[1] = tested on: human primary hepatocytes; test: Intracellular lipid accumulation (steatosis) in primary human hepatocytes co-treated with sFA+TNF-α, LipidTOX fluorescence microscopy after 72h; assay type: cell-based; parameters: Rx effect (lipid): scale not given here; settings: for Rx effect (Lipid: total lipid area subtracted from baseline sFA+TNFa, normalized to nuclei count): 72 h; for Rx effect (lipid): donor 2
Experimental: Hepatocyte lipotoxicity appears to be a central driver of hepatic cellular injury via oxidative stress and endoplasmic reticulum (ER) stress. The ability of amino acids combined to therapeutics agents (Rx) to influence steatosis (lipid accumulation) and inflammation in hepatocytes was assessed using human primary hepatocytes purchased from two sources: Lonza and Sekisui Xenotech. […] After 6 hours, cells were washed twice and incubated overnight at 37° C., 5% CO2 in hepatocytes plating media. On day 1, cells were washed twice and incubated for 24h in Hepatocytes defined medium (Corning) supplemented with 2mM Glutamax (Gibco), and 1x Penicillin/Streptomycin in the same conditions described above. […] The values are published in the Human Metabolome Database (Wishart DS, Tzur D, Knox C, et al., HMDB: the Human Metabolome Database. Nucleic Acids Res. 2007 Jan; 35(Database issue):[…]-6. 17202168; which is hereby incorporated by reference in its entirety). […] After 24 hours incubation, media was removed for chemokine analysis (MCP1) and the same co treatment was reapplied for an additional 48 hours for a total of 72 hours. After 72 hours, cells were washed twice with PBS 1x (Gibco), fixed with 4% Paraformaldehyde, and washed twice with PBS 1x (100 ul). […] The LipidTOXTM neutral lipid stain has an extremely high affinity for neutral lipid droplets that was detected by fluorescence microscopy using a high content imager (Molecular Devices). Lipid was normalized to the specific per well cell density determined by nuclei count.

[2] = Results 1, donors 1 and 2, AA compositions at 20X

O=C(O)c1ccnc(N2CC(O)(c3ccc(OCc4c(-c5c(Cl)cccc5Cl)noc4C4CC4)cc3Cl)C2)c1 [Cilofexor, 2-(3-(2-chloro-4-((5-cyclopropyl-3-(2,6-dichlorophenyl)isoxazol-4-yl)methoxy)phenyl)-3-hydroxyazetidin-1-yl)isonicotinic acid]
Rx effect (MCP1/CCL2 secretion; donor 1, Rx 0.031 µM): -0.009
Rx effect (MCP1/CCL2 secretion; donor 1, Rx 0.125 µM): 0.582
Rx effect (MCP1/CCL2 secretion; donor 1, Rx 0.500 µM): 1.210
Rx effect (MCP1/CCL2 secretion; donor 1, Rx 2.000 µM): 1.898
Rx effect (MCP1/CCL2 secretion; donor 2, Rx 0.125 µM): 0.28
Rx effect (MCP1/CCL2 secretion; donor 2, Rx 0.500 µM): 0.47
Rx effect (MCP1/CCL2 secretion; donor 2, Rx 2.000 µM): 0.69 and 0.695
MCP1 level / MCP1 secretion compared to baseline (sFA+TNF-α) (MCP1/CCL2 secretion): slight increase
MCP1 level / MCP1 secretion level compared to the baseline (sFA+TNF-α) (MCP1/CCL2 secretion): no change or a slight increase in MCP1 secretion level
Rx effect (MCP1) (MCP1/CCL2 secretion; donor 2, Rx 0.0313 µM): -0.265
Rx effect (MCP1) (MCP1/CCL2 secretion; donor 2, Rx 0.125 µM): 0.229
Rx effect (MCP1) (MCP1/CCL2 secretion; donor 2, Rx 0.5 µM): 0.525
Rx effect (MCP1) (MCP1/CCL2 secretion; donor 2, Rx 2 µM): 0.301
Rx effect (Lipid: total lipid area subtracted from baseline sFA+TNFa, normalized to nuclei count) ([1]; Donor 1, Rx Conc. 0.031 µM): 0.019
Rx effect (Lipid: total lipid area subtracted from baseline sFA+TNFa, normalized to nuclei count) ([1]; Donor 1, Rx Conc. 0.125 µM): 0.072
Rx effect (Lipid: total lipid area subtracted from baseline sFA+TNFa, normalized to nuclei count) ([1]; Donor 1, Rx Conc. 0.500 µM): 0.027
Rx effect (Lipid: total lipid area subtracted from baseline sFA+TNFa, normalized to nuclei count) ([1]; Donor 1, Rx Conc. 2.000 µM): 0.195
Rx effect (Lipid: total lipid area subtracted from baseline sFA+TNFa, normalized to nuclei count) ([1]; Donor 2, Rx Conc. 0.031 µM): -0.049
Rx effect (Lipid: total lipid area subtracted from baseline sFA+TNFa, normalized to nuclei count) ([1]; Donor 2, Rx Conc. 0.125 µM): 0.031
Rx effect (Lipid: total lipid area subtracted from baseline sFA+TNFa, normalized to nuclei count) ([1]; Donor 2, Rx Conc. 0.500 µM): 0.104
Rx effect (Lipid: total lipid area subtracted from baseline sFA+TNFa, normalized to nuclei count) ([1]; Donor 2, Rx Conc. 2.000 µM): 0.050
lipid level compared to baseline (sFA+TNFa) [1, 2]: no changes
lipid level compared to baseline (sFA+TNFa) ([1]; Results 2, donor 2): no changes in lipid level
Rx effect (lipid) ([1]; Rx 0.0313 µM): -0.110
Rx effect (lipid) ([1]; Rx 0.125 µM): 0.001
Rx effect (lipid) ([1]; Rx 0.5 µM): 0.088
Rx effect (lipid) ([1]; Rx 2 µM): 0.080

COc1ccccc1[C@H](Cn1c(=O)n(C(C)(C)C(=O)O)c(=O)c2c(C)c(-c3ncco3)sc21)OC1CCOCC1 [Firsocostat, (R)-2-(1-(2-(2-methoxyphenyl)-2-((tetrahydro-2H-pyran-4-yl)oxy)ethyl)-5-methyl-6-(oxazol-2-yl)-2,4-dioxo-1,4-dihydrothieno[2,3-d]pyrimidin-3(2H)-yl)-2-methylpropanoic acid]
Rx effect (MCP1/CCL2 secretion; donor 1, Rx 0.063 µM): -0.233
Rx effect (MCP1/CCL2 secretion; donor 1, Rx 1.000 µM): -0.827
Rx effect (MCP1/CCL2 secretion; donor 1, Rx 4.000 µM): -0.479
Rx effect (MCP1/CCL2 secretion; donor 2, Rx 0.063 µM): -0.319
Rx effect (MCP1/CCL2 secretion; donor 2, Rx 1.000 µM): -0.614
Rx effect (MCP1/CCL2 secretion; donor 2, Rx 4.000 µM): -0.775
MCP1 level / MCP1 secretion compared to baseline (sFA+TNF-α) (MCP1/CCL2 secretion): slight reduction in MCP1 secretion
MCP1 level / MCP1 secretion level compared to the baseline (sFA+TNF-α) (MCP1/CCL2 secretion): no change or a slight reduction in MCP1 secretion level
Rx effect (MCP1) (MCP1/CCL2 secretion; donor 2, Rx 0.0625 µM): -0.147
Rx effect (MCP1) (MCP1/CCL2 secretion; donor 2, Rx 1 µM): -0.682
Rx effect (MCP1) (MCP1/CCL2 secretion; donor 2, Rx 4 µM): -0.510
Rx effect (Lipid: total lipid area subtracted from baseline sFA+TNFa, normalized to nuclei count) ([1]; Donor 1, Rx Conc. 0.063 µM): -0.210
Rx effect (Lipid: total lipid area subtracted from baseline sFA+TNFa, normalized to nuclei count) ([1]; Donor 1, Rx Conc. 1.000 µM): -0.412
Rx effect (Lipid: total lipid area subtracted from baseline sFA+TNFa, normalized to nuclei count) ([1]; Donor 1, Rx Conc. 4.000 µM): -0.317
Rx effect (Lipid: total lipid area subtracted from baseline sFA+TNFa, normalized to nuclei count) ([1]; Donor 2, Rx Conc. 0.063 µM): -0.246
Rx effect (Lipid: total lipid area subtracted from baseline sFA+TNFa, normalized to nuclei count) ([1]; Donor 2, Rx Conc. 1.000 µM): -0.449
Rx effect (Lipid: total lipid area subtracted from baseline sFA+TNFa, normalized to nuclei count) ([1]; Donor 2, Rx Conc. 4.000 µM): -0.485
lipid level compared to baseline (sFA+TNFa) [1, 2]: slight reduction in lipid level
lipid level compared to baseline (sFA+TNFa) ([1]; Results 2, donor 2): slight reduction in lipid level
Rx effect (lipid) ([1]; Rx 0.0625 µM): -0.147
Rx effect (lipid) ([1]; Rx 1 µM): -0.404
Rx effect (lipid) ([1]; Rx 4 µM): -0.458

Cc1cc(F)c(C(=O)Nc2cccc(-c3nncn3C(C)C)n2)cc1-n1cnc(C2CC2)c1 [Selonsertib, 5-(4-cyclopropyl-1H-imidazol-1-yl)-2-fluoro-N-(6-(4-isopropyl-4H-1,2,4-triazol-3-yl)pyridin-2-yl)-4-methylbenzamide]
Rx effect (MCP1/CCL2 secretion; donor 1, Rx 0.063 µM): -0.167
Rx effect (MCP1/CCL2 secretion; donor 1, Rx 1.000 µM): -0.503
Rx effect (MCP1/CCL2 secretion; donor 1, Rx 4.000 µM): -0.552
Rx effect (MCP1/CCL2 secretion; donor 2, Rx 0.063 µM): -0.306
Rx effect (MCP1/CCL2 secretion; donor 2, Rx 1.000 µM): -0.152
Rx effect (MCP1/CCL2 secretion; donor 2, Rx 4.000 µM): -0.462
MCP1 level / MCP1 secretion compared to baseline (sFA+TNF-α) (MCP1/CCL2 secretion): slight reduction in MCP1 secretion
MCP1 level / MCP1 secretion level compared to the baseline (sFA+TNF-α) (MCP1/CCL2 secretion): no change or a slight reduction in MCP1 secretion level
Rx effect (MCP1) (MCP1/CCL2 secretion; donor 2, Rx 0.0625 µM): 0.004
Rx effect (MCP1) (MCP1/CCL2 secretion; donor 2, Rx 1 µM): -0.411
Rx effect (MCP1) (MCP1/CCL2 secretion; donor 2, Rx 4 µM): -0.463
Rx effect (Lipid: total lipid area subtracted from baseline sFA+TNFa, normalized to nuclei count) ([1]; Donor 1, Rx Conc. 0.063 µM): -0.060
Rx effect (Lipid: total lipid area subtracted from baseline sFA+TNFa, normalized to nuclei count) ([1]; Donor 1, Rx Conc. 1.000 µM): -0.154
Rx effect (Lipid: total lipid area subtracted from baseline sFA+TNFa, normalized to nuclei count) ([1]; Donor 1, Rx Conc. 4.000 µM): -0.152
Rx effect (Lipid: total lipid area subtracted from baseline sFA+TNFa, normalized to nuclei count) ([1]; Donor 2, Rx Conc. 0.063 µM): -0.096
Rx effect (Lipid: total lipid area subtracted from baseline sFA+TNFa, normalized to nuclei count) ([1]; Donor 2, Rx Conc. 1.000 µM): -0.164
Rx effect (Lipid: total lipid area subtracted from baseline sFA+TNFa, normalized to nuclei count) ([1]; Donor 2, Rx Conc. 4.000 µM): -0.307
lipid level compared to baseline (sFA+TNFa) [1, 2]: slight reduction in lipid level
lipid level compared to baseline (sFA+TNFa) ([1]; Results 2, donor 2): slight reduction in lipid level
Rx effect (lipid) ([1]; Rx 0.0625 µM): -0.024
Rx effect (lipid) ([1]; Rx 1 µM): -0.156
Rx effect (lipid) ([1]; Rx 4 µM): -0.178

O=C(O)c1cc(F)c2nc(N3C4CC[C@H]3C[C@H](OCc3c(-c5ccccc5OC(F)(F)F)noc3C3CC3)C4)sc2c1 [Tropifexor, 2-[(3-endo)-3-[[5-cyclopropyl-3-[2-(trifluoromethoxy)phenyl]-4-isoxazolyl]methoxy]-8-azabicyclo[3.2.1]oct-8-yl]-4-fluoro-6-benzothiazolecarboxylic acid]
Rx effect (MCP1/CCL2 secretion; donor 1, Rx 0.063 µM): 0.956
Rx effect (MCP1/CCL2 secretion; donor 1, Rx 1.000 µM): 0.877
Rx effect (MCP1/CCL2 secretion; donor 1, Rx 4.000 µM): 0.658
Rx effect (MCP1/CCL2 secretion; donor 2, Rx 0.063 µM): -0.16
MCP1 level / MCP1 secretion compared to baseline (sFA+TNF-α) (MCP1/CCL2 secretion): slight increase
Rx effect (Lipid: total lipid area subtracted from baseline sFA+TNFa, normalized to nuclei count) ([1]; Donor 1, Rx Conc. 0.063 µM): 0.169
Rx effect (Lipid: total lipid area subtracted from baseline sFA+TNFa, normalized to nuclei count) ([1]; Donor 1, Rx Conc. 1.000 µM): 0.185
Rx effect (Lipid: total lipid area subtracted from baseline sFA+TNFa, normalized to nuclei count) ([1]; Donor 1, Rx Conc. 4.000 µM): 0.214
Rx effect (Lipid: total lipid area subtracted from baseline sFA+TNFa, normalized to nuclei count) ([1]; Donor 2, Rx Conc. 0.063 µM): 0.132
Rx effect (Lipid: total lipid area subtracted from baseline sFA+TNFa, normalized to nuclei count) ([1]; Donor 2, Rx Conc. 1.000 µM): 0.083
Rx effect (Lipid: total lipid area subtracted from baseline sFA+TNFa, normalized to nuclei count) ([1]; Donor 2, Rx Conc. 4.000 µM): 0.049
lipid level compared to baseline (sFA+TNFa) [1, 2]: slight increase in lipid level
